Reference: patent US11992495B2 (THE REGENTS OF THE UNIVERSITY OF CALIFORNIA, priority 2017, dated 2024)

System: lymph node mononuclear cells (T cell proliferation in response to HEL)
Experiment: T cell recall responses to HEL, 3H-thymidine uptake (proliferation)
Type: cell-based, Mice
Details: alprazolam (Xanax) alone, any of the dosages tested
Description: Mice were injected with hen egg lysozyme (HEL, a prototypic foreign antigen) in 50% complete Freund's adjuvant (CFA) in their hind food-pad. […] During the last 16 h of a 96 h incubation period, […] ^3H thymidine was added into each well.

Cc1nnc2n1-c1ccc(Cl)cc1C(c1ccccc1)=NC2 [alprazolam]
effect on T cell proliferation: did not have a significant effect
